# Test results taken from publication PMC6479946 (Molecules, 2019).
# Assays:
# in vivo = conditions: rat plasma, n = 8, mean ± SD; for AUC(0-t) / AUC(0-inf) / CL/F / Cmax / k el / MRT / Tmax: male, Sprague-Dawley, rat, in vivo, po; for AUC(0-t): AUC(0-t) of HAR; for AUC(0-inf): AUC(0-∞) of HAR; for CL/F: CL/F of HAR; for Cmax: Cmax of HAR; for k el: Ke of HAR; for MRT: MRT of HAR; for Tmax: Tmax of HAR
# Description: The analytes were separated on an ACQUITY UPLC BEH C18 column (2.1 mm × 50 mm, 1.7 μm, Waters, Milford, USA). […] The flow rate was 0.3 mL/min. The column and sample-tray temperature were kept at 40 °C and 4 °C, respectively. The injection volume was 5.0 μL using a partial loop with needle over fill mode.
# The compound dependent parameters used for analysis were summarized in Supplementary materials Table S1.
# A rapid and convenient precipitation method was used to prepare the plasma samples. A 100 μL aliquot of plasma sample was spiked with 100 μL of IS solution and 300 μL of methanol in a 1.5 mL centrifuge tube; subsequently, the mixtures were vortex-mixed for 30.0 s and then centrifuged at 1.5 × 10^4× g for 10 min at 4 °C. A 100 μL aliquot of supernatant was combined with 25.0 μL of 0.1% formic acid water in a clean centrifuge tube and then vortex-mixed for 30 s. A 5.0 μL aliquot of mixture was injected into the UPLC-MS/MS system for analysis.
# Fifty-six pathogen-free male adult rats were randomly divided into seven groups with eight rats in each group for pharmacokinetic study. […] One group was intragastrically administered with MEM hydrochloride 5.0 mg/kg dissolved in ultrapure water, namely, MEM group. […] The blood samples were immediately centrifuged at 4.0 × 10^3× g at […] for 10 min, and 100 μL of the supernatant plasma was transferred into another new 1.5 mL centrifuge tube and stored at −20 °C until UPLC-MS/MS analysis.
# All standard curves and quantitative data were processed by Agilent Mass Hunter Quantitative Analysis Workstation Software. […] All the pharmacokinetic parameters were processed using the non-compartmental pharmacokinetics data analysis software program PK solutions 2.0^TM (Summit Research Services, USA). […] The AUC(0-t) was obtained by the linear/logarithmic trapezoidal rule, and the area under the plasma concentration versus time curve from zero to infinity (AUC(0-∞)) was calculated by means of the trapezoidal rule with extrapolation to infinity with a terminal elimination rate constant. The Pearson correlation coefficient analysis was processed by IBM SPSS Statistics Version 21. A statistical analysis was performed using analysis of variance with α = 0.05 as the minimal level of significance.
# [1] = oral administration of 40.0 mg/kg HAR; cited from earlier work
# [2] = 20 mg/kg, oral HAR 20.0 mg/kg + MEM 5.0 mg/kg (HAR-L + MEM)
# [3] = 20 mg/kg, oral HAR 20.0 mg/kg alone (HAR-L)
# [4] = 40 mg/kg, oral HAR 40.0 mg/kg + MEM 5.0 mg/kg (HAR-M + MEM)
# [5] = 40 mg/kg, oral HAR 40.0 mg/kg alone (HAR-M)
# [6] = 80 mg/kg, oral HAR 80.0 mg/kg + MEM 5.0 mg/kg (HAR-H + MEM)
# [7] = 80 mg/kg, oral HAR 80.0 mg/kg alone (HAR-H)
# [8] = oral HAR 20.0 mg/kg + MEM 5.0 mg/kg (HAR-L + MEM)
# [9] = oral HAR 20.0 mg/kg alone (HAR-L)
# [10] = oral HAR 40.0 mg/kg + MEM 5.0 mg/kg (HAR-M + MEM)
# [11] = oral HAR 40.0 mg/kg alone (HAR-M)
# [12] = oral HAR 80.0 mg/kg + MEM 5.0 mg/kg (HAR-H + MEM)
# [13] = oral HAR 80.0 mg/kg alone (HAR-H)
smiles,measurement,setting,value
"COc1ccc2c(c1)[nH]c1c(C)nccc12 [HAR, 7-methoxy-1-methyl-9H-pyrido [3,4-β] indole]",AUC(0-t),in vivo; [2],141 ± 56.7 ng·h/mL
same,AUC(0-t),in vivo; [3],74.9 ± 36.3 ng·h/mL
same,AUC(0-inf),in vivo; [2],158 ± 65.4 ng·h/mL
same,AUC(0-inf),in vivo; [3],83.1 ± 38.9 ng·h/mL
same,CL/F,in vivo; [2],158 L/h/kg
same,CL/F,in vivo; [3],323 L/h/kg
same,Cmax,in vivo; [2],64.5 ± 14.7 ng/mL
same,Cmax,in vivo; [3],31.4 ± 16.3 ng/mL
same,k el,in vivo; [2],8.67e-05 s⁻¹
same,k el,in vivo; [3],0.000119 s⁻¹
same,MRT,in vivo; [2],4.02 ± 1.96 h
same,MRT,in vivo; [3],3.36 ± 1.38 h
same,Tmax,in vivo; [2],0.5 ± 0.267 h
same,Tmax,in vivo; [3],0.5 ± 0.267 h
same,AUC(0-t),in vivo; [4],139 ± 40.6 ng·h/mL
same,AUC(0-t),in vivo; [5],100 ± 44.8 ng·h/mL
same,AUC(0-inf),in vivo; [4],153 ± 43.1 ng·h/mL
same,AUC(0-inf),in vivo; [5],109 ± 47.9 ng·h/mL
same,CL/F,in vivo; [4],278 L/h/kg
same,CL/F,in vivo; [5],431 L/h/kg
same,Cmax,in vivo; [4],86.6 ± 31 ng/mL
same,Cmax,in vivo; [5],77 ± 53.8 ng/mL
same,k el,in vivo; [4],4.83e-05 s⁻¹
same,k el,in vivo; [5],0.000132 s⁻¹
same,MRT,in vivo; [4],3.28 ± 1.02 h
same,MRT,in vivo; [5],2.83 ± 1.41 h
same,Tmax,in vivo; [4],0.24 ± 0.129 h
same,Tmax,in vivo; [5],0.365 ± 0.271 h
same,AUC(0-t),in vivo; [6],1060 ± 540 ng·h/mL
same,AUC(0-t),in vivo; [7],502 ± 180 ng·h/mL
same,AUC(0-inf),in vivo; [6],1110 ± 508 ng·h/mL
same,AUC(0-inf),in vivo; [7],587 ± 275 ng·h/mL
same,CL/F,in vivo; [6],91.2 L/h/kg
same,CL/F,in vivo; [7],163 L/h/kg
same,Cmax,in vivo; [6],755 ± 298 ng/mL
same,Cmax,in vivo; [7],368 ± 253 ng/mL
same,k el,in vivo; [6],0.000127 s⁻¹
same,k el,in vivo; [7],0.000116 s⁻¹
same,MRT,in vivo; [6],2.88 ± 1.93 h
same,MRT,in vivo; [7],3.17 ± 1.48 h
same,Tmax,in vivo; [6],0.448 ± 0.63 h
same,Tmax,in vivo; [7],0.344 ± 0.186 h
same,Ka of HAR,in vivo; [8],1.91 ± 2.46 h⁻¹
same,T1/2a of HAR,in vivo; [8],1.57 ± 2.28 h
same,T1/2e of HAR,in vivo; [8],2.89 ± 2.26 h
same,T1/2d of HAR,in vivo; [8],1.22 ± 1.24 h
same,Vd of HAR,in vivo; [8],59.0 ± 35.1 (L/kg) × 10
same,Ka of HAR,in vivo; [9],1.66 ± 2.27 h⁻¹
same,T1/2a of HAR,in vivo; [9],1.29 ± 1.25 h
same,T1/2e of HAR,in vivo; [9],2.05 ± 1.11 h
same,T1/2d of HAR,in vivo; [9],2.14 ± 2.57 h
same,Vd of HAR,in vivo; [9],80.3 ± 39.2 (L/kg) × 10
same,Ka of HAR,in vivo; [10],1.52 ± 1.08 h⁻¹
same,T1/2a of HAR,in vivo; [10],1.18 ± 1.22 h
same,T1/2e of HAR,in vivo; [10],4.33 ± 1.31 h
same,T1/2d of HAR,in vivo; [10],2.33 ± 2.71 h
same,Vd of HAR,in vivo; [10],172 ± 61.6 (L/kg) × 10
same,Ka of HAR,in vivo; [11],2.69 ± 2.60 h⁻¹
same,T1/2a of HAR,in vivo; [11],0.529 ± 0.478 h
same,T1/2e of HAR,in vivo; [11],2.28 ± 1.86 h
same,T1/2d of HAR,in vivo; [11],0.960 ± 0.734 h
same,Vd of HAR,in vivo; [11],136 ± 105 (L/kg) × 10
same,Ka of HAR,in vivo; [12],2.93 ± 2.06 h⁻¹
same,T1/2a of HAR,in vivo; [12],0.357 ± 0.228 h
same,T1/2e of HAR,in vivo; [12],3.21 ± 3.17 h
same,T1/2d of HAR,in vivo; [12],1.40 ± 1.74 h
same,Vd of HAR,in vivo; [12],60.3 ± 89.6 (L/kg) × 10
same,Ka of HAR,in vivo; [13],2.80 ± 2.74 h⁻¹
same,T1/2a of HAR,in vivo; [13],0.605 ± 0.546 h
same,T1/2e of HAR,in vivo; [13],2.35 ± 1.44 h
same,T1/2d of HAR,in vivo; [13],1.36 ± 1.37 h
same,Vd of HAR,in vivo; [13],51.4 ± 33.1 (L/kg) × 10
same,maximum peak concentration (Cmax) of HAR,[1],67.1 ± 34.3 ng/mL
